Measured values taken from patent US20210347785A1, “PREPARATION AND APPLICATION OF AROMATIC COMPOUND HAVING IMMUNOREGULATORY FUNCTION” (SHANGHAI ENNOVABIO PHARMACEUTICALS CO., LTD., priority 2018, published 2021).

target: T1, PD-1/PD-L1 (Homo sapiens, UniProt Q9NZQ7); test: PD-1/PD-L1 homogeneous time-resolved fluorescence (HTRF) binding assay; conditions: 665 nm/620 nm ratio
T1 construct: purchased Cisbio 63ADK000CPDEC
Description: Test Example 1: Detect the Inhibitory Effect of the Compound to the Binding of PD-1/PD-L1 Protein
The PD-1/PD-L1 homogeneous time-resolved fluorescence method is used to detect the binding ability of the compound with PD-L1.
PD-1/PD-L1 binding assay kit (Cisbio, Cat #63ADK000CPDEC) was chosen, which contains two proteins Tag 1-PD-L1 and Tag 2-PD-1, and two antibodies Anti-Tag1-Eu^3+ and Anti-Tag2-XL 665. The principle of detection was: Anti-tag1-Eu^3+ was used as the donor of HTRF, and Anti-Tag2-XL 665 was used as the acceptor of HTRF. When Tag 1-PD-L1 interacts with Tag 2-PD-1, the added HTRF donor and the acceptor are close to each other. After the donor has received the excitation energy, part of the energy was transferred to the acceptor, thus generating 665 nm emission light. […] The inhibitory effect of the compound can be determined by comparing the ratio of 665 nm/620 nm. Tag 1-PD-L1 was diluted with Diluent buffer (cat #62DLBDDF) to a working concentration of 10 nM, Tag 2-PD-1 was diluted with Diluent buffer to a working concentration of 500 nM, Anti-Tag1-Eu^3+ was diluted with detection buffer (cat #62DB1FDG) at a ratio of 1:100, Anti-Tag2-XL 665 was diluted with detection buffer at a ratio of 1:20, and the compound to be detected was diluted with diluent buffer to a final concentration of 2×. Compound solution (2 μL) was added to each well of a 384-well plate, then Tag 1-PD-L1 (4 μL) and Tag 2-PD-1 (4 μL) were added successively. The mixture was incubated at room temperature for 15 minutes. Then Anti-Tag1-Eu^3+ (5 μL) and Anti-Tag2-XL 665 (5 μL) were added, and the mixture was incubated overnight at room temperature. BioTek Synergy™ Neo2 multifunctional microplate reader was used to detect so as to provide the 665 nm/620 nm ratio. PrismGraphd 5.02 was used to fit the IC50 curve.

T1 sequence (Q9NZQ7 19-238 limits assumed): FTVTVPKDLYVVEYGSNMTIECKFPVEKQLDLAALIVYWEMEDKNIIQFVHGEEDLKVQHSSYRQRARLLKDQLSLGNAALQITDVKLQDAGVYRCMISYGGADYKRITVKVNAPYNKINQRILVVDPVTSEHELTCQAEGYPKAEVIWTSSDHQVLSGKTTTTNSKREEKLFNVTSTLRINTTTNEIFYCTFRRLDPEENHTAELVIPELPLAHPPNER

Row | IC50 [µM] | Structure (SMILES)
1 | < 0.1 | O=C(O)CNCc1nc2c(Nc3cccc(-c4cccc(-c5ccc(CNC[C@@H]6CCC(=O)N6)c(O)n5)c4Cl)c3Cl)nccc2n1CCO [Compound 23]
2 | < 0.1 | COc1nc(-c2cccc(-c3cccc(Nc4nccc5sc(CNCC#N)nc45)c3Cl)c2Cl)ccc1CNC[C@@H]1CCC(=O)N1 [Compound 24]
3 | < 0.1 | COc1nc(-c2cccc(-c3cccc(Nc4nccc5sc(CNCC(=O)O)nc45)c3Cl)c2Cl)ccc1CN1CCC2(CNC(=O)C2)C1 (centres unmarked) [Compound 25]
4 | 0.1 to 1 | COc1nc(-c2cccc(-c3cccc(Nc4nccc5sc(CNCC(=O)O)nc45)c3Cl)c2Cl)cnc1CNC[C@@H]1CCC(=O)N1 [Compound 26]
5 | < 0.1 | COc1nc(-c2cccc(-c3cccc(Nc4nccc5sc(CNCC(=O)O)nc45)c3Cl)c2Cl)cc(C)c1CNC[C@@H]1CCC(=O)N1 [Compound 27]
6 | < 0.1 | COc1nc(-c2cccc(-c3cccc(Nc4nccc5sc(CNCC(=O)O)nc45)c3Cl)c2Cl)c(Cl)cc1CNC[C@@H]1CCC(=O)N1 [Compound 28]
7 | < 0.1 | COc1nc(-c2cccc(-c3cccc(Nc4nccc5sc(CN6CC(NC(C)=O)C6)nc45)c3Cl)c2Cl)ccc1CN1CC2(CCC(=O)N2)C1 [Compound 29]
8 | < 0.1 | COc1nc(-c2cccc(-c3cccc(Nc4nccc5sc(CNCC(=O)O)nc45)c3Cl)c2Cl)cc(C)c1CN1CC2(CCC(=O)N2)C1 [Compound 30]
9 | < 0.1 | COc1nc(-c2cccc(-c3cccc(Nc4nccc5sc(CN6C[C@@H](O)CC6=O)nc45)c3Cl)c2Cl)ccc1CN1CC2(CCC(=O)N2)C1 [Compound 31]
10 | < 0.1 | COc1nc(-c2cccc(-c3cccc(Nc4nccc5sc(CN6CC(C(=O)O)C6)nc45)c3Cl)c2Cl)ccc1CN1CC2(CCC(=O)N2)C1 [Compound 32]
11 | < 0.1 | COc1nc(-c2cccc(-c3cccc(Nc4nccc5sc(CN6CCC[C@H](C(=O)O)C6)nc45)c3Cl)c2Cl)ccc1CN1CC2(CCC(=O)N2)C1 [Compound 33]
12 | < 0.1 | COc1nc(-c2cccc(-c3cccc(Nc4nccc5sc(CNCc6nn[nH]n6)nc45)c3Cl)c2Cl)ccc1CN1CC2(CCC(=O)N2)C1 [Compound 39]
13 | < 0.1 | COc1nc(-c2cccc(-c3cccc(Nc4nccc5sc(CN6CCC(C(=O)O)CC6)nc45)c3Cl)c2Cl)ccc1CNC[C@@H]1CCC(=O)N1 [Compound 40]
14 | < 0.1 | COc1nc(-c2cccc(-c3cccc(Nc4nccc5sc(CN6CCC[C@@H]6C(=O)O)nc45)c3Cl)c2Cl)ccc1CNC[C@@H]1CCC(=O)N1 [Compound 41]
15 | < 0.1 | COc1nc(-c2cccc(-c3cccc(Nc4nccc5sc(CN6CCCC[C@@H]6C(=O)O)nc45)c3Cl)c2Cl)ccc1CNC[C@@H]1CCC(=O)N1 [Compound 42]
16 | < 0.1 | COc1cc(-c2cccc(-c3cccc(Nc4nccc5sc(CN6CCC(C(=O)O)CC6)nc45)c3Cl)c2Cl)nc(C)c1CNC[C@@H]1CCC(=O)N1 [Compound 43]
17 | < 0.1 | COc1nc(-c2cccc(-c3cccc(Nc4nccc5sc(CN6CC[C@H](C(=O)O)C6)nc45)c3Cl)c2Cl)cc(C)c1CNC[C@@H]1CCC(=O)N1 [Compound 44]
18 | < 0.1 | COc1nc(-c2cccc(-c3cccc(Nc4nccc5sc(CN6CC[C@@H](C(=O)O)C6)nc45)c3Cl)c2Cl)cc(C)c1CNC[C@@H]1CCC(=O)N1 [Compound 45]
19 | < 0.1 | COc1nc(-c2cccc(-c3cccc(Nc4nccc5sc(CN6CCC7(CNC(=O)C7)C6)nc45)c3Cl)c2Cl)cc(C)c1CNC[C@@H]1CCC(=O)N1 (some centres unmarked) [Compound 46]

More lines, now with the values behind:

Row | Structure (SMILES) | IC50 [µM]
20 | Cc1c(Nc2csc3cc(CNCCO)cnc23)cccc1-c1ccccc1 [Compound 1, 2-(((3-((2-Methyl-[1,1′-biphenyl]-3-yl)amino)thieno[3,2-b]pyridin-6-yl)methyl)amino)ethane-1-ol] | < 0.1
21 | Cc1c(Nc2csc3cc(CN4C[C@@H](O)C[C@H]4C(=O)O)cnc23)cccc1-c1ccccc1 [Compound 2, (2S,4S)-4-hydroxy-1-((3-((2-methyl-[1,1′-biphenyl]-3-yl)amino)thieno[3,2-b]pyridine-6-yl)methyl)pyrrolidine-2-carboxylic acid] | < 0.1
22 | NC(=O)CNCc1nc2c(Nc3cccc(-c4ccccc4)c3Cl)nccc2s1 [Compound 3, 2-(((4-((2-chloro-[1,1′-biphenyl]-3-yl)amino)thiazolo[4,5-c]pyridin-2-yl)methyl)amino) acetamide] | < 0.1
23 | O=C(O)[C@@H]1C[C@H](O)CN1Cc1nc2c(Nc3cccc(-c4ccccc4)c3Cl)nccc2s1 [Compound 4] | < 0.1
24 | OCCNCc1nc2c(Nc3cccc(-c4ccccc4)c3Cl)nccc2s1 [Compound 5, 2-(((4-((2-Chloro-[1,1′-biphenyl]-3-yl)amino)thiazolo[4,5-c]pyridin-2-yl)methyl)amino)ethane-1-ol] | < 0.1
25 | O[C@@H]1CCN(Cc2nc3c(Nc4cccc(-c5ccccc5)c4Cl)nccc3s2)C1 [Compound 6, (R)-1-((4-((2-Chloro-[1,1′-biphenyl]-3-yl)amino)thiazolo[4,5-c]pyridin-2-yl)methyl)pyrrolidin-3-ol] | 0.1 to 1
26 | O[C@H]1CCN(Cc2nc3c(Nc4cccc(-c5ccccc5)c4Cl)nccc3s2)C1 [Compound 7, (S)-1-((4-((2-Chloro-[1,1′-biphenyl]-3-yl)amino)thiazolo[4,5-c]pyridin-2-yl)methyl)pyrrolidin-3-ol] | 0.1 to 1
27 | O=C(O)CNCc1nc2c(Nc3cccc(-c4ccccc4)c3Cl)nccc2s1 [Compound 8, ((4-((2-Chloro-[1,1′-biphenyl]-3-yl)amino)thiazolo[4,5-c]pyridin-2-yl)methyl)glycine] | < 0.1
28 | OCCNCc1nc2c(Nc3cccc(-c4ccc5c(c4)OCCO5)c3Cl)nccc2s1 [Compound 10, 2-(((4-((2-chloro-3-(2,3-dihydrobenzo[b][1,4]dioxin-6-yl)phenyl)amino)thiazolo[4,5-c)pyridin-2-yl)methyl)amino)ethane-1-ol] | < 0.1
29 | OCCNCc1nc2c(Nc3cccc(-c4cccc(OCCCCN5CCC(O)C5)c4)c3Cl)nccc2s1 (centres unmarked) [Compound 12, 1-(4-((2′-chloro-3′-((2-(((2-hydroxyethyl)amino)methyl)thiazolo[4,5-c]pyridin-4-yl)amino)-[1,1′-biphenyl]-3-yl)oxo)butyl)pyrrolidin-3-ol] | < 0.1
30 | CN(CCCO)CCCOc1cccc(-c2cccc(Nc3nccc4sc(CNCC(=O)O)nc34)c2Cl)c1 [Compound 14, ((4-((2-chloro-3′-(3-((3-hydroxypropyl)(methyl)amino)propoxy)-[1,1′-biphenyl]-3-yl)amino)thiazolo[4,5-c]pyridin-2-yl)methyl)glycine] | < 0.1
31 | O=C(O)CNCc1nc2c(Nc3cccc(-c4cccc(OCCCN5CCC(O)C5)c4)c3Cl)nccc2s1 (centres unmarked) [Compound 15, ((4-((2-chloro-3′-(3-(3-hydroxypyrrolidine-1-yl)propoxy)-[1,1′-biphenyl]-3-yl)amino)thiazolo[4,5-c]pyridine-2-yl)methyl)glycine] | < 0.1
32 | Cc1c(OCCCN2CCC(O)C2)cccc1-c1cccc(Nc2nccc3sc(CNCC(=O)O)nc23)c1Cl (centres unmarked) [Compound 16, ((4-((2-chloro-3′-(3-(3-hydroxypyrrolidin-1-yl)propoxy)-2′-methyl-[1,1′-biphenyl]-3-yl)amino)thiazolo[4,5-c]pyridin-2-yl)methyl)glycine] | < 0.1
33 | OCCNCc1nc2ccnc(Nc3cccc(-c4ccccc4)c3Cl)c2s1 [Compound 17, 2-(((4-((2-chloro-[1,1′-biphenyl]-3-yl)amino)thiazolo[5,4-c]pyridin-2-yl)methyl)amino)ethane-1-ol] | 0.1 to 1
34 | COc1nc(-c2cccc(-c3cccc(Nc4nccc5sc(CNCC(=O)O)nc45)c3Cl)c2Cl)ccc1CNC[C@@H]1CCC(=O)N1 [Compound 18, (S)-((4-((2,2′-dichloro-3′-(6-methoxy-5-((((5-carbonylpyrrolidin-2-yl)methyl)amino)methyl)pyridin-2-yl)-[1,1′-biphenyl]-3-yl)amino)thiazolo[4,5-c]pyridin-2-yl)methyl)glycine] | < 0.1
35 | COc1nc(-c2cccc(-c3cccc(Nc4nccc5sc(CNCC(=O)OCc6oc(=O)oc6C)nc45)c3Cl)c2Cl)ccc1CNC[C@@H]1CCC(=O)N1 [Compound 19, (5-methyl-2-carbonyl-1,3-dioxazole-4-yl) methyl (S)-((4-((2,2′-dichloro-3′-(6-methoxy-5-((5-carbonylpyrrolidin-2-yl)methyl)pyridine-2-yl)-[1,1′-biphenyl]-3-yl)amino)thiazolo [4,5-c]pyridine-2-yl)methyl) glycine] | < 0.1
36 | COc1nc(-c2cccc(-c3cccc(Nc4nccc5sc(CNCC(=O)O)nc45)c3Cl)c2C)ccc1CNC[C@@H]1CCC(=O)N1 [Compound 20] | < 0.1
37 | Cc1c(-c2ccc(CNC[C@@H]3CCC(=O)N3)c(O)n2)cccc1-c1cccc(Nc2nccc3sc(CNCC(=O)O)nc23)c1Cl [Compound 21] | < 0.1
38 | COc1nc(-c2cccc(-c3cccc(Nc4nccc5sc(CNCC(=O)O)nc45)c3Cl)c2Cl)ccc1CN1CC2(CCC(=O)N2)C1 [Compound 22] | < 0.1
